Reference: publication PMC6268061, “Investigation of the Biological Properties of (Hetero)Aromatic Thiosemicarbazones” (Molecules, 2012)
In brackets after ≈: the same amount, converted by molar mass. Where two headings read alike, the source gives them in different places.

What was measured:
[1] = system: Aspergillus fumigatus 231; assay: In vitro antifungal susceptibility, broth microdilution; type: cell-based; conditions: read-out: MIC (IC50) AF
[2] = system: Trichosporon beigelii 1188; assay: as above; type: cell-based; conditions: read-out: MIC (IC80) TB
In short: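 Twofold dilutions (500 to 0.975 μmol/L final) in RPMI 1640 with MOPS, pH 7.0, per CLSI broth microdilution. MIC taken as IC80 for yeasts (M27-A2) or IC50 for moulds (M38-A) versus drug-free control, read after 24 and 48 h static incubation at 35 °C.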

Absidia corymbifera 272 = assay: as above; type: cell-based; conditions: read-out: MIC (IC50) AC
[3] = system: HCT-116 human colon cancer cells (p53 wild type); assay: In vitro antiproliferative activity, MTS assay; type: cell-based; conditions: HCT-116, 72 h incubation, MTS, read-out: HCT-116 IC50
Experimental: The antiproliferative activity of all of the compounds was examined against the human colon cancer (HCT-116) cell line using an MTS assay. The HCT-116 p53 wild type cell line was chosen on the basis of our former experience and some results on the activity of quinoline-based thiosemicarbazones that was published recently. Namely, compounds 4a–l have been tested previously for their wide-ranging anticancer activity. The antiproliferative activity of the compounds evaluated was assessed using Doxorubicin as a reference compound. In general, quinoline-based thiosemicarbazones 4 seem to have a much better anticancer activity than halogenophenyl compounds 3. Thus, the quinoline nucleus can be defined as being crucial for antiproliferative activity. A more detailed analysis of the anticancer activity of quinoline-based thiosemicarbazone is available. […] Nevertheless, some more general conclusions can be drawn from the gathered data. […] The free amino group or substitution pattern with small substituents such as methyl or ethyl are favorable for activity. According to our former results the chelating ability of the compounds may be one of the prerequisites of the antiproliferative activity. In this study we have measured the UV-VIS spectra of the compounds in presence of various concentration of Fe^3+ cations to observe its chelating potency (supplementary material). […] However as 4j give also two points at 330 and 385 nm, iron chelating ability should be regarded only as one of the factor influencing the biological activity.
The human colon cancer cell line HCT116 with the wild type p53 gene (p53^+/+) were obtained from Maria Sklodowska-Curie Memorial Cancer Center in Gliwice, Poland. Briefly, the cells were seeded in 96-well plates (3 × 10^3 cells/well) in cellular proliferation assays 24 h before the addition of the chelators. The assay was performed following a 72 h incubation with varying concentrations of the agents. Each compound was tested in triplicate in a single experiment with each experiment being repeated 3 times. After 72 h incubation with the compounds being investigated, 20 µL of MTS solution was added to each well (100 µL) and incubated for 1 h at 37 °C. The optical densities of the samples were analyzed at 490 nm. Results were expressed as a percentage of the control. The inhibitory concentration (IC50) was defined as the compound concentration necessary to reduce the absorbance to 50% of the untreated control.

[4] = system: Candida albicans ATCC 44859; assay: In vitro antifungal susceptibility, broth microdilution; type: cell-based; conditions: read-out: MIC (IC80) CA
Candida tropicalis 156 = assay: as above; type: cell-based; conditions: read-out: MIC (IC80) CT
[5] = Lipophilicity determination using RP-HPLC (capacity factor, log k); type: physicochemical; conditions: C18, MeOH 55%/H2O 45%
In short: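 Isocratic RP-HPLC on a C18 column (5 μm, 4.6 × 250 mm), 55% MeOH/45% water at 0.9 mL/min, 30 °C, UV detection 210 nm. Dead time from KI; capacity factor k = (tR − tD)/tD, with log k taken as the lipophilicity index on log P scale.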

[6] = Aspergillus fumigatus, 231, 24 h
[7] = Aspergillus fumigatus, 231, 48 h
[8] = Trichosporon beigelii, 1188, 24 h
[9] = Trichosporon beigelii, 1188, 48 h
[10] = Lichtheimia corymbifera, 272, 24 h
[11] = Lichtheimia corymbifera, 272, 48 h

Row | SMILES | IC50 [1, 6] [µM] | IC50 [1, 7] [µM] | MIC [2, 8] [µM] | MIC [2, 9] [µM] | IC50 (Absidia corymbifera 272; [10]) [µM] | IC50 (Absidia corymbifera 272; [11]) [µM] | IC50 [3] [µM] | MIC ([4]; ATCC44859, 24 h) [µM] | MIC ([4]; ATCC44859, 48 h) [µM] | MIC (Candida tropicalis 156; Candida tropicalis, 156, 24 h) [µM] | MIC (Candida tropicalis 156; Candida tropicalis, 156, 48 h) [µM] | log k [5]
1 | CN(C)C(=S)N/N=C/c1ccc(Cl)c(Cl)c1 [Compound 3h, (E)-2-(3,4-Dichlorobenzylidene)-N,N-dimethylhydrazinecarbothioamide] | > 500 | > 500 | 125 (≈ 34.5 µg/mL) | 500 (≈ 138 µg/mL) | > 500 | > 500 | 47 ± 1.3 | 15.6 (≈ 4.31 µg/mL) | 31.2 (≈ 8.63 µg/mL) | 500 (≈ 138 µg/mL) | 500 (≈ 138 µg/mL) | 0.7555
2 | NC(=S)N/N=C/c1ccc(Br)cc1 [Compound 3k, (E)-2-(4-Bromobenzylidene)hydrazinecarbothioamide] | > 500 | > 500 | 500 (≈ 129 µg/mL) | 500 (≈ 129 µg/mL) | > 500 | > 500 | > 60 | 500 (≈ 129 µg/mL) | 500 (≈ 129 µg/mL) | > 500 | > 500 | 0.6580
3 | CN(C)C(=S)N/N=C/c1ccc(Br)cc1 [Compound 3m, (E)-2-(4-bromobenzylidene)-N,N-dimethylhydrazinecarbothioamide] | > 500 | > 500 | 15.6 (≈ 4.47 µg/mL) | 62.5 (≈ 17.9 µg/mL) | > 500 | > 500 | 47.5 ± 2.4 | 62.5 (≈ 17.9 µg/mL) | 250 (≈ 71.5 µg/mL) | > 500 | > 500 | 0.6784
